Experimental data from patent US20250333394A1, “Tiparp Inhibitor Compounds” (AbbVie Inc., priority 2024, published 2025).
pEC50: −log10 of the molar value.

How the values were obtained:
MC-38 (Ker) tumors = assay: MC-38 (Ker) syngeneic model efficacy; format: in vivo, mouse; conditions: PO once daily up to 21 days, C57BL/6 mice
Experimental: (§1) The murine cell line MC-38 derived from C57BL6 murine colon adenocarcinoma cells was obtained from Kerafast (Boston, MA, USA). A suspension of 2.5×10^5 cells in culture medium mixed with Matrigel® (Corning Life Sciences, Lowell, MA, USA; 1:1, volume:volume) was injected subcutaneously in the right hind flank of female C57BL/6 mice to generate tumor formation. Treatment started when the size of the flank tumors was approximately 120 mm^3. Vehicle and four different doses of Example 1 were administered once daily to each of eight mice at each dose level for up to 21 days. Each administration consisted of a single 0.2 mL oral (PO) dose in a vehicle formulation (10% ethanol, 30% PEG300, and 60% PHOSAL® 50 PG).

DLD-1 parent cells = assay: CellTiter-Glo DLD-1 parent cell assay; format: cell-based; conditions: Homo sapiens, 144 h, 6 days, read-out: DLD-1 CTG EC50
Outline: (§2)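 DLD-1 parent (500 cells/well) and DLD-1 BRCA2 (−/−) (1200 cells/well) cells in RPMI 1640 with 10% FBS exposed to compounds at 30 μM to 0.5 nM (3-fold dilutions) for 6 days at 37° C. Viability read by CellTiter-Glo luminescence on day 7.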

IFNβ = assay: Tumor selective induction of IFNβ in MC-38 (Ker) syngeneic model; format: in vivo, mouse; conditions: 3 hours after last dose, PO once daily for 2 days
Experimental: as §1, with “C57BL/6” for “C57BL6”, “500” for “120”, “three” for “four”, “four to five” for “eight”, “2” for “up to 21”, “PO” for “oral (PO)”
Blood and tumors were collected 3 hours after the last dose. Blood was transferred to microfuge tubes containing E DTA, centrifuged at 2000×g for 8 minutes at 4° C., and the upper plasma layer was transferred to new tubes and frozen at −80° C. Tumors were weighed and 200 to 500 mg of tumor tissue was transferred to microfuge tubes, which were then centrifuged at 15000×g for 10 minutes at 4° C. The supernatant was transferred to a fresh 96 well plate. […] The concentration of IFNβ in the thawed plasma and tumor fluid was determined using a Milliplex MAP mouse IFNβ assay (EMD Millipore, Burlington, MA, USA).

DLD-1 BRCA2 (−/−) cells = assay: CellTiter-Glo DLD-1 BRCA2 (−/−) cell assay for PARP1/2 inhibition; format: cell-based; conditions: Homo sapiens, 144 h, 6 days, read-out: DLD-1 BRCA2 (−/−) CTG EC50
Outline: as §2

SMILES: C[C@@H]1CN(c2ncc(C(F)(F)F)cn2)CCN1C(=O)[C@H]1C[C@@H](c2c[nH]c(=O)c(C(F)(F)F)c2)C1 [Example 1, 5-[(1S,3s)-3-{(2R)-2-methyl-4-[5-(trifluoromethyl)pyrimidin-2-yl]piperazine-1-carbonyl}cyclobutyl]-3-(trifluoromethyl)pyridin-2(1H)-one]
- maximum tumor growth inhibition (TGIMax) (MC-38 (Ker) tumors; Dose A): 46%
- maximum tumor growth inhibition (TGIMax) (MC-38 (Ker) tumors; Dose B): 77%
- maximum tumor growth inhibition (TGIMax) (MC-38 (Ker) tumors; Dose C): 98%
- maximum tumor growth inhibition (TGIMax) (MC-38 (Ker) tumors; Dose D): 99%
- pEC50 (DLD-1 parent cells): < 4.52
- induction of IFNβ in plasma (IFNβ; plasma): not in plasma
- induction of IFNβ in tumors (IFNβ; tumor fluid): induced IFNβ in MC-38 (Ker) tumors compared to vehicle
- pEC50 (DLD-1 BRCA2 (−/−) cells): 4.73
